The results in this text go back to patent US20220079962A1, “NUTRITIONAL COMPOSITION COMPRISING 2'FUCOSYLLACTOSE AND DIETARY BUTYRATE” (N.V. Nutricia, priority 2019, published 2022).

Experiment [1] concerns infant intestinal microbiota. Kind of experiment: quad-SHIME model of infant intestinal microbiota (SCFA, glycoprofile). Conditions: distal colon. More on the design: species or system human; Butyrate (Mean ± SD) / Iso-Butyrate (Mean ± SD) / Acetate (Mean ± SD): unit not given here. The source says: A faecal sample from a healthy infant born via C-section, exclusively breastfed with no history of antibiotic usage, was used as inoculum to simulate the infant intestinal microbiota in the colon compartments of a quad-SHIME®—a dynamic model of the human gastrointestinal tract comprises 4 SHIME® units running in parallel and each SHIME® unit is composed of 3 reactors simulating the stomach and small intestine, proximal and distal colons.

Experiment [2] deals with Salmonella enteriditis S29. The experiment in a line: Fecal slurry fermentation spiked with pathogens, Salmonella growth. On the procedure:
In addition the test legs were supplemented with Clostridium difficile C153 (difficile agar), Salmonella enteriditis S29 (XLD agar), Cronobacter sakasakii E71 (chromogenic agar) or Klebsiella pneumonia K2 (Simons citrate inositol agar). For every NDO and for the control also a pathogen free culture was prepared.
The experiment was started, and pH setpoint was either 5.5 (facial inoculum from infant 1, vaginally born, breast fed) or pH 6.0 (Inoculum from infant 2, vaginally born, breast fed) with continuous pH regulation, and temperature 37° C., humidity 85%, OD control. At 4, 8 and 24 hours a sample is taken for CFU determination on TOS-propionate MUP agar (total Bifidobacteria), XLD agar for Salmonella enteriditis S29, and Simons citrate inositol agar for Klebsiella pneumonia K2 and for SCFA, D- and L Lactate and ammonia analysis. Fecal pellet was used for 16s DNA sequencing. For both inocula the extent of fermentation, as measured by NaOH consumption, i.e. acid production, was highest with the combination of 3′-GU2′-FL, when compared to 3′-GL or 2′-FL alone. The rate of initial acidification was high for 3′-GL and for 3′-GL/2′-FL. […] As the amount of carbohydrates that can be fermented is the same in the reaction vessels, the higher total acidification with the combination is indicative for an unexpected, synergistic effect of the combination of 2′-FL and 3′-GL. […]

For the compound `C[C@@H]1O[C@@H](O[C@H]2[C@H](O[C@H]3[C@H](O)[C@@H](O)C(O)O[C@@H]3CO)O[C@H](CO)[C@H](O)[C@@H]2O)[C@@H](O)[C@H](O)[C@@H]1O` (stereo partly drawn) [2′-FL, α-L-Fuc-(1→2)-β-D-Gal-(1→4)-D-Glc], in experiment [1], the “butyrate generation relative to the control and the scGOS/IcFOS groups” value was “generated earlier in the distal colon and at a higher concentration”. In addition, in experiment [1] (D 1-D 3), the “Acetate (Mean ± SD)” value worked out at 38.67 ± 10.25, the “Butyrate (Mean ± SD)” value is 0 ± 0, the “Iso-Butyrate (Mean ± SD)” value stood at 0 ± 0 and the “Propionate (Mean ± SD)” value came to 10.17 ± 3.01. In experiment [1] (D 4-D 11), the “Acetate (Mean ± SD)” value was 26.22 ± 0.97, the “Butyrate (Mean ± SD)” value came to 0.74 ± 0.49, the “Iso-Butyrate (Mean ± SD)” value stood at 0.68 ± 0.75 and the “Propionate (Mean ± SD)” value was found to be 6.58 ± 0.49. Further, in experiment [1] (D 12-D 15), the “Acetate (Mean ± SD)” value came to 22.96 ± 1.04, the “Butyrate (Mean ± SD)” value is 0.99 ± 0.09, the “Iso-Butyrate (Mean ± SD)” value is 0.93 ± 0.21 and the “Propionate (Mean ± SD)” value is 6.13 ± 0.63. Further, the “Salmonella growth” value in experiment [2] (inoculum of baby 1) was “most restricted”. Besides, in experiment [2] (inoculum of baby 2), the “Salmonella growth” value was “most restricted”.
